Test system: not listed separately
Experiment: Phase separation temperature of compatibilizer / Zerol 150 alkylbenzene oil / R134a mixtures (cloud point on cooling)
Type: physicochemical
Settings: near 25.0 wt % Zerol 150 : 25.0 wt % compatibilizer : 50.0 wt % R134a, cooled in one degree intervals
Experimental: The phase separation temperatures for lactone compatibilizers of the present invention when combined with Zerol® 150 alkylbenzene oil were determined. […] The glass tube was sealed at one end, and the other end was sealed to a Teflon® vacuum valve stopcock. This entire apparatus was tared, and was attached at valve E to a high vacuum line capable of achieving 10^−4 to 10^−5 torr (See FIG. 1). The pressure was measured by a mercury manometer, F. All five valves, A, B, C, D and E were attached to the manifold via greased ground-glass joints. Valve A joined the manifold to the source of refrigerant. Valve B joined a flask comprising fluorocarbon refrigerant, once loaded into the manifold. Valve C joined a 125.5 mL calibrated vessel to the manifold. And valve D joined a 5 mm OD in leg glass tube 150 mm in length containing oil and compatibilizer.
The glass tube, refrigerant container, and calibrated volume were evacuated by opening valve B, C, D, and E, and keeping valve A closed. After vacuum was achieved, Valve D and E were closed. An atmosphere of refrigerant was introduced into the vacuum line by opening Valve A. After closing valve A, the refrigerant was condensed into the refrigerant container by cooling with a liquid nitrogen bath. Valve E was opened to remove any residual air. Valve E was closed, and the refrigerant container was allowed to warm until the desired pressure was reached as indicated on the mercury manometer whereupon Valve C was closed trapping a known amount of refrigerant in the calibrated volume. The excess refrigerant was condensed back into the refrigerant container by cooling with a liquid nitrogen bath, Valve B was closed, and Valve E was opened to remove all residual gases. The glass tube was cooled in a liquid nitrogen bath, and the refrigerant was transferred from the calibrated volume to the glass tube by closing Valve E, and opening Valves C and D. Valve D was then sealed after all the refrigerant had transferred into the glass tube. The glass tube apparatus was removed from the vacuum line, and the tube was allowed to warm while maintaining the tube behind appropriate protective shielding for safety purposes throughout the rest of the procedure owing to the positive pressure in the glass tube. After removal of grease from the ground glass joint, the previously tared glass tube apparatus was weighed to ensure the appropriate mass of refrigerant had been added to the tube. In a typical experiment, the composition in the tube was near 50.0 wt % R134a, 25.0 wt % Zerol® 150 and 25.0 wt % of compatibilizer.
The phase separation temperature of the mixture was determined by manually shaking the contents of the glass tube while cooling the mixture by one degree Centigrade intervals until a cloudpoint/phase separation was visually observed. Results are shown in Table II in comparison with an amide compatibilizer, N-octyl-pyrrolidin-2-one.

Compound | Phase Separation Temperature
CC(CC[C@@H]1C[C@H](C)OC1=O)CC(C)(C)C (relative stereo) [cis-3-(3,5,5-trimethylhexyl)-5-methyl-dihydro-furan-2-one] | 2 deg C
CC[C@@H]1C[C@H](C)OC1=O (relative stereo) [cis-3-ethyl-5-methyl-dihydro-furan-2-one] | >25 deg C
CCCCCCC[C@@H]1C[C@H](C)OC1=O (relative stereo) [cis-3-heptyl-5-methyl-dihydro-furan-2-one] | phase gelled and/or precipitated at −11 deg C
CCCCCC[C@@H]1C[C@H](C)OC1=O (relative stereo) [cis-3-hexyl-5-methyl-dihydro-furan-2-one] | −9 deg C
CCCCCC[C@]1(C)CCC(=O)O1 (stereo in doubt) [5-methyl-5-hexyl-dihydro-furan-2-one] | −2 deg C
CCCCCCCC[C@]1(C)CCC(=O)O1 (stereo in doubt) [5-methyl-5-octyl-dihydro-furan-2-one] | −4 deg C
O=C1OC[C@H]2CCCC[C@@H]12 (stereo in doubt) [Hexahydro-isobenzofuran-1-one] | 4 deg C
CCCCCCCC1CCOC1=O (stereo not drawn) [3-heptyldihydro-furan-2-one] | 0 deg C
CCCCCCC1CCOC1=O (stereo not drawn) [3-hexyldihydro-furan-2-one] | 5 deg C
CC(CC=C1C[C@@H](C)OC1=O)CC(C)(C)C (stereo partly drawn) [(E,Z)-3-(3,5,5-trimethylhexylidene)-5-methyl-dihydrofuran-2-one] | 3 deg C
CCCCCCC=C1CC(C)OC1=O (stereo not drawn) [(E,Z)-3-Heptylidene-5-methyl-dihydro-furan-2-one] | −6 deg C
CCCCCC=C1CC(C)OC1=O (stereo not drawn) [(E,Z)-3-Hexylidene-5-methyl-dihydro-furan-2-one] | −7 deg C
CCCC=C1CC(C)OC1=O (stereo not drawn) [(E,Z)-3-butylidene-5-methyl-dihydro-furan-2-one] | 9 deg C
CC1C/C(=C/C2CCCCC2)C(=O)O1 (stereo not drawn) [(E,Z)-3-cyclohexylmethylidene-5-methyl-dihydrofuran-2-one] | −2 deg C
CC=C1CC(C)OC1=O (stereo not drawn) [(E,Z)-3-ethylidene-5-methyl-dihydro-furan-2-one] | 24 deg C
CCCCCCCCC=C1CC(C)OC1=O (stereo not drawn) [(E,Z)-3-nonylidene-5-methyl-dihydro-furan-2-one] | 4 deg C
CCCCCCCC=C1CC(C)OC1=O (stereo not drawn) [(E,Z)-3-octylidene-5-methyl-dihydro-furan-2-one] | −8 deg C

Compound | Phase Separation Temperature
CCCCC=C1CC(C)OC1=O (stereo not drawn) [(E,Z)-3-pentylidene-5-methyl-dihydro-furan-2-one] | 0 deg C
CCC=C1CC(C)OC1=O (stereo not drawn) [(E,Z)-3-propylidene-5-methyl-dihydro-furan-2-one] | 12 deg C
CCCCCCCCN1CCCC1=O [N-octylpyrrolidin-2-one, reference compound] | −4 deg C
CCCC[C@@H]1C[C@H](C)OC1=O [cis-(3-butyl-5-methyl)-dihydro-furan-2-one] | 10 deg C
CCCCC[C@@H]1C[C@H](C)OC1=O [cis-(3-pentyl-5-methyl)-dihydro-furan-2-one] | −1 deg C
CCC[C@@H]1C[C@H](C)OC1=O [cis-(3-propyl-5-methyl)-dihydro-furan-2-one] | 14 deg C
CCCCCC1CCCC(=O)O1 (stereo not drawn) [delta-decalactone] | −10 deg C
CCCCCCCC1CCCC(=O)O1 (stereo not drawn) [delta-dodecalactone] | −13 deg C
CCCCCCC1CCCC(=O)O1 (stereo not drawn) [delta-undecalactone] | −12 deg C
CCCCOC(=O)c1ccccc1C(=O)OCCCC [dibutyl phthalate, reference compound] | 18 deg C
CCC1CCC(=O)O1 (stereo not drawn) [gamma-caprolactone, reference compound] | Immiscible with Zerol ®150
CCCCCCC1CCC(=O)O1 (stereo not drawn) [gamma-decalactone] | −3 deg C
CCCCCCCCC1CCC(=O)O1 (stereo not drawn) [gamma-dodecalactone] | −6 deg C
CCCCCC1CCC(=O)O1 (stereo not drawn) [gamma-nonalactone] | −2 deg C
CCCCC1CCC(=O)O1 (stereo not drawn) [gamma-octalactone] | 10 deg C
(E,Z)-3-decylidene-5-methyl-dihydro-furan-2-one | 13 deg C

Test system: not listed separately
Experiment: Kinematic viscosity of lactone compatibilizers
Type: physicochemical
Settings: at 40° C.

Compound | kinematic viscosity [centistokes]
CCCCCC[C@@H]1C[C@H](C)OC1=O (relative stereo) [cis-3-hexyl-5-methyl-dihydro-furan-2-one] | 4.5

Test system: New Zealand White rabbits
Experiment: Acute skin irritation/corrosive potential, scored on the Draize scale
Type: in vivo
Settings: 0.5 mL undiluted, approximately 4 hours exposure, semi-occlusive, evaluated up to 72 hours
Experimental: Compositions of the present invention were evaluated for acute skin irritation/corrosive potential in New Zealand White rabbits. An aliquot of 0.5 mL of undiluted compatibilizer was administered to a localized site on the backs of the animals. The test sites were covered with a semi-oclusive dressing to ensure contact between the skin and the test substance. The animals were exposed to the test substances for approximately 4 hours. The test sites were evaluated for erythrema, edema, and other evidence of dermal effects for up to 72 hours following the removal of the test substance. Observed dermal effects were scored according to the Draize scale. The reversibility of dermal effects was assessed for up to 14 days, as necessary.

Compound | Classification | Observations (dermal effects)
5-methyl-n-octyl-pyrrolidin-2-one | Corrosive | Necrosis
CCCCCCC1CC(C)OC1=O (stereo not drawn) [3-hexyl-5-methyl-gammabutyrolactone] | Not a skin irritant | No irritation
CC1CCC(=O)N1C1CCCCC1 (stereo not drawn) [5-methyl-n-cyclohexyl pyrrolidin-2-one] | Corrosive | Necrosis
CCCCCCCCC(=O)N(C)C [N,N-Dimethylnonanamide] | Severe irritant | –
CCCCCCCCN1CCCC1=O [N-octylpyrrolidin-2-one, reference compound] | Severe irritant | –
